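How tested: cells in 96-well plates exposed to compound for 48 hours at five concentrations. Abbreviation: GI50, concentration required for 50% inhibition of growth.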 Activity calls are given as the source filed them. Rule as the data show it: active = GI50 up to about 1.1 µM and inactive = higher. *1 amine or outer side, *2 acyl side, *3 side chain or, on linkers, in order; H or OH if unused. Where a SMILES comes first, the peptide text is derived from it. Bridges are numbered along the chain shown (N, C = ends). Roman numbers before positions name the chains, in order. [ ]: non-standard residue; d: D form. Actinocin(9to1) = Cc1c2oc3c(C)ccc(C(=O)[*:1])c3nc-2c(C(=O)[*:2])c(N)c1=O; NMeV = CN[CH](C(=O)O)C(C)C; Sar = CNCC(=O)O
Columns and labels:
Experiment in all cases: NCI-60 cell line screen, 48 h
[1] = test system: NCI-H23
[2] = test system: OVCAR-4
[3] = test system: SNB-19
[4] = test system: UO-31
[5] = test system: RPMI-8226
[6] = test system: SK-MEL-28
[7] = test system: UACC-257
[8] = test system: NCI-H226
[9] = test system: MDA-MB-435
[10] = test system: SW-620
[11] = test system: OVCAR-3
[12] = test system: ACHN
[13] = test system: SK-MEL-5
[14] = test system: HCT-116
[15] = test system: MDA-N
[16] = test system: MOLT-4
[17] = test system: SF-268
[18] = test system: COLO 205
[19] = test system: HCC 2998

SMILES | GI50 [1] | GI50 [2] | GI50 [3] | GI50 [4] | GI50 [5] | GI50 [6] | GI50 [7] | GI50 [8] | GI50 [9] | GI50 [10] | GI50 [11] | GI50 [12] | GI50 [13] | GI50 [14] | GI50 [15] | GI50 [16] | GI50 [17] | GI50 [18] | GI50 [19]
CN(CCC(=O)O)S(=O)(=O)c1ccccc1 | > 100 µM (inactive) | > 100 µM (inactive) | > 100 µM (inactive) | > 100 µM (inactive) | > 100 µM (inactive) | > 100 µM (inactive) | > 100 µM (inactive) | > 100 µM (inactive) | > 100 µM (inactive) | > 100 µM (inactive) | > 100 µM (inactive) | > 100 µM (inactive) | > 100 µM (inactive) | > 100 µM (inactive) | > 100 µM (inactive) | > 100 µM (inactive) | > 100 µM (inactive) | > 100 µM (inactive) | –
CCCCN1CSC(=S)N(Cc2ccccc2)C1 | 42.6 µM (inactive) | 56.8 µM (inactive) | 66.4 µM (inactive) | > 100 µM (inactive) | 24.9 µM (inactive) | > 100 µM (inactive) | 20.9 µM (inactive) | > 68.5 µM (inactive) | 38.2 µM (inactive) | 37.8 µM (inactive) | 33.7 µM (inactive) | > 100 µM (inactive) | 23.4 µM (inactive) | 35.4 µM (inactive) | 37.6 µM (inactive) | 25.6 µM (inactive) | 49.7 µM (inactive) | 23.2 µM (inactive) | –
CC(=O)N1N=C(c2ccc3ccccc3c2O)CC1c1ccc(Cl)cc1Cl (centres undefined) | > 100 µM (inactive) | 33.1 µM (inactive) | – | > 100 µM (inactive) | 17.3 µM (inactive) | 93.1 µM (inactive) | 44.2 µM (inactive) | 44.6 µM (inactive) | 25.4 µM (inactive) | 26.9 µM (inactive) | 15.6 µM (inactive) | 29.6 µM (inactive) | 33.7 µM (inactive) | 16.7 µM (inactive) | 24.4 µM (inactive) | 7.67 µM (inactive) | 26.9 µM (inactive) | 28.3 µM (inactive) | > 100 µM (inactive)
COc1cc(O)c2c(=O)cc(C3(OC(C)=O)C=CC(OC4OC(CO)C(O)C(O)C4O)C=C3)oc2c1 (centres undefined) | > 100 µM (inactive) | > 100 µM (inactive) | > 100 µM (inactive) | > 100 µM (inactive) | > 100 µM (inactive) | > 100 µM (inactive) | > 100 µM (inactive) | > 100 µM (inactive) | > 100 µM (inactive) | > 100 µM (inactive) | > 100 µM (inactive) | > 100 µM (inactive) | > 100 µM (inactive) | > 100 µM (inactive) | > 100 µM (inactive) | > 100 µM (inactive) | – | > 100 µM (inactive) | > 100 µM (inactive)
O=C(NCCN1CCCCC1)c1ccc(Br)cc1 | > 100 µM (inactive) | > 100 µM (inactive) | > 100 µM (inactive) | > 100 µM (inactive) | > 100 µM (inactive) | > 100 µM (inactive) | > 100 µM (inactive) | – | > 100 µM (inactive) | > 100 µM (inactive) | > 100 µM (inactive) | > 100 µM (inactive) | > 100 µM (inactive) | > 100 µM (inactive) | > 100 µM (inactive) | > 100 µM (inactive) | > 100 µM (inactive) | > 100 µM (inactive) | > 100 µM (inactive)
NC(=O)NNCc1ccccc1 | > 100 µM (inactive) | > 100 µM (inactive) | > 100 µM (inactive) | > 100 µM (inactive) | > 100 µM (inactive) | – | > 100 µM (inactive) | > 100 µM (inactive) | > 100 µM (inactive) | > 100 µM (inactive) | > 100 µM (inactive) | > 100 µM (inactive) | > 100 µM (inactive) | > 100 µM (inactive) | > 100 µM (inactive) | > 100 µM (inactive) | > 100 µM (inactive) | > 100 µM (inactive) | > 100 µM (inactive)
COc1cc(OC)c(OC)cc1/C=C1\C=Cc2ccccc21 | 18.8 µM (inactive) | – | > 10 µM (inactive) | 16.3 µM (inactive) | 10.8 µM (inactive) | 15.7 µM (inactive) | 16.3 µM (inactive) | 26.9 µM (inactive) | 5.32 µM (inactive) | 11.1 µM (inactive) | – | 27.1 µM (inactive) | 11.1 µM (inactive) | 5.65 µM (inactive) | 9.18 µM (inactive) | 6.31 µM (inactive) | 17.1 µM (inactive) | 7.96 µM (inactive) | 13.5 µM (inactive)
CCCCC(C(=O)NCCNC(=O)CCC(=O)N(C)O)C(=O)NCCNC(=O)CCC(=O)N(C)O | > 100 µM (inactive) | > 100 µM (inactive) | > 100 µM (inactive) | > 100 µM (inactive) | > 100 µM (inactive) | > 100 µM (inactive) | > 100 µM (inactive) | > 100 µM (inactive) | > 100 µM (inactive) | > 100 µM (inactive) | > 100 µM (inactive) | > 100 µM (inactive) | > 100 µM (inactive) | > 100 µM (inactive) | > 100 µM (inactive) | > 100 µM (inactive) | – | > 100 µM (inactive) | > 100 µM (inactive)
CCOC1CC(=O)c2c(Br)sc(Br)c21 (centres undefined) | 17.9 µM (inactive) | – | 23.8 µM (inactive) | 18.2 µM (inactive) | 17.9 µM (inactive) | 19.6 µM (inactive) | 16.9 µM (inactive) | – | 17.5 µM (inactive) | 20 µM (inactive) | 14.6 µM (inactive) | 19.7 µM (inactive) | 30.8 µM (inactive) | 21.2 µM (inactive) | 22.3 µM (inactive) | 14.3 µM (inactive) | 28.6 µM (inactive) | 19.7 µM (inactive) | 21.9 µM (inactive)
O=[N+]([O-])/C(C(Cl)=C(Cl)Cl)=C(/Nc1cccc2cccnc12)n1nnc2ccccc21 | 15.5 µM (inactive) | 17.2 µM (inactive) | 16.9 µM (inactive) | 15.8 µM (inactive) | 24.5 µM (inactive) | 18.4 µM (inactive) | 30.3 µM (inactive) | 23.2 µM (inactive) | 15.9 µM (inactive) | 15.8 µM (inactive) | 8.18 µM (inactive) | 19.7 µM (inactive) | – | 19.3 µM (inactive) | 13.9 µM (inactive) | 3.57 µM (inactive) | 16.5 µM (inactive) | 17.3 µM (inactive) | 44.1 µM (inactive)
NC(=S)N/N=C1/CCCC2CCCC[C@@H]12 (some centres undefined) | > 100 µM (inactive) | > 100 µM (inactive) | > 100 µM (inactive) | > 100 µM (inactive) | > 100 µM (inactive) | > 100 µM (inactive) | > 100 µM (inactive) | > 100 µM (inactive) | > 100 µM (inactive) | > 100 µM (inactive) | > 100 µM (inactive) | > 100 µM (inactive) | 97.3 µM (inactive) | – | > 100 µM (inactive) | > 100 µM (inactive) | > 100 µM (inactive) | > 100 µM (inactive) | > 100 µM (inactive)
Cc1c2oc3c(C)ccc(C(=O)NC4C(=O)NC(Cc5ccccc5)C(=O)N5CCCC5C(=O)N(C)CC(=O)N(C)C(C(C)C)C(=O)OC4C)c3nc-2c(C(=O)NC2C(=O)NC(Cc3ccccc3)C(=O)N3CCCC3C(=O)N(C)CC(=O)N(C)C(C(C)C)C(=O)OC2C)c(N)c1=O (centres undefined) (I: TFP[Sar][NMeV] / II: TFP[Sar][NMeV]; ester I:1-I:C, II:1-II:C; linker I:N-II:N via Actinocin(9to1); configuration not given here) | < 0.001 µM (active) | 0.0171 µM (active) | – | 0.00354 µM (active) | < 0.001 µM (active) | < 0.001 µM (active) | < 0.001 µM (active) | < 0.001 µM (active) | < 0.001 µM (active) | < 0.001 µM (active) | < 0.001 µM (active) | < 0.001 µM (active) | < 0.001 µM (active) | < 0.001 µM (active) | 0.00162 µM (active) | < 0.001 µM (active) | < 0.001 µM (active) | < 0.001 µM (active) | < 0.001 µM (active)
Oc1ccc(Cl)cc1C1=NC(NCNC2=NC(c3ccccc3)CC(c3cc(Cl)ccc3O)=N2)=NC(c2ccccc2)C1 (centres undefined) | > 100 µM (inactive) | 64.1 µM (inactive) | > 100 µM (inactive) | 54.2 µM (inactive) | 63.4 µM (inactive) | > 100 µM (inactive) | > 100 µM (inactive) | > 100 µM (inactive) | 47.9 µM (inactive) | > 100 µM (inactive) | 60.1 µM (inactive) | 43.6 µM (inactive) | > 100 µM (inactive) | 56 µM (inactive) | 79.1 µM (inactive) | – | 97.9 µM (inactive) | > 100 µM (inactive) | > 100 µM (inactive)
CC(=O)NC1C(OCc2ccccc2)OC(CO)C(O)C1OCC(=O)N[C@@H](C)C(=O)N[C@H](CCC(=O)NCCCNc1ccc([N+](=O)[O-])c2[nH]c3ccccc3c(=O)c12)C(N)=O (some centres undefined) | > 100 µM (inactive) | 34 µM (inactive) | 37.4 µM (inactive) | > 100 µM (inactive) | > 100 µM (inactive) | > 100 µM (inactive) | 54 µM (inactive) | 25.5 µM (inactive) | > 100 µM (inactive) | > 100 µM (inactive) | > 100 µM (inactive) | 50.8 µM (inactive) | 57.9 µM (inactive) | 45.4 µM (inactive) | > 100 µM (inactive) | – | – | > 100 µM (inactive) | 49.3 µM (inactive)
CCOC(=O)NN(C(=O)OCC)C(=C(C1=CCCCC1)N1CCOCC1)N(NC(=O)OCC)C(=O)OCC | > 100 µM (inactive) | – | > 100 µM (inactive) | > 100 µM (inactive) | > 100 µM (inactive) | > 100 µM (inactive) | – | > 100 µM (inactive) | > 100 µM (inactive) | > 100 µM (inactive) | > 100 µM (inactive) | > 100 µM (inactive) | – | – | > 100 µM (inactive) | > 100 µM (inactive) | > 100 µM (inactive) | > 100 µM (inactive) | > 100 µM (inactive)
